Experiments:
[1] = test system: neuraminidase (NA) of A(H1N1)pdm09 viruses; settings: cited from earlier work
[2] = test system: neuraminidase (NA) of B/Yamagata-lineage viruses; format: biochemical, influenza B/Yamagata-lineage virus
[3] = test system: neuraminidase (NA) of A(H1N1)pdm09 viruses; format: biochemical, influenza A(H1N1)pdm09 virus

Compound | effect on inhibition (IC50 fold) [1] | inhibition phenotype in NAI assay (NI/RI/HRI) [2] | IC50 fold-change of viruses exhibiting RI/HRI [3]
CCOC(=O)C1=C[C@@H](OC(CC)CC)[C@H](NC(C)=O)[C@@H](N)C1 [Oseltamivir, oseltamivir] | 5- to 8 fold |  | 
CCC(CC)[C@H](NC(C)=O)[C@@H]1[C@H](O)[C@@H](C(=O)O)C[C@H]1N=C(N)N [Peramivir, peramivir] |  | borderline RI | 10- to 6270 fold
CC(=O)N[C@H]1[C@H]([C@H](O)[C@H](O)CO)OC(C(=O)O)=C[C@@H]1N=C(N)N [Zanamivir, zanamivir] |  | borderline RI | 

From paper PMC5667636 (Antiviral Research, 2017)
